Reference: US4504470A, “Pharmaceutical preparations containing TRH or its analogue” (Takeda Chemical Industries, Ltd., priority 1981, dated 1985)
Like-named read-outs stand apart in the source and are kept apart here.

How the values were obtained:
[1] = set-up: species or system rats; conditions: rat, in vivo; for AUC (0-2 hr.): po, 2 mg/kg
Procedure: Using male SD-strain rats weighing ca. 300 g which had been fasted for 24 hours in groups of 3 animals, an amount of ^3 H-TRH equivalent to 2 mg/kg of TRH was administered by the rectal, nasal and oral routes.
The method and volume of administration, the method of collecting blood samples and the method of determination were all the same as described in Experimental Example 1. Evaluation of absorption ratio was made using as a parameter the plasma level of TRH.

[2] = Absorption of DN-1417 (14C-DN-1417) administered by various routes to rats, plasma AUC; type: in vivo; conditions: for bioavailability as compared with subcutaneous application: no absorption enhancer, 2 mg/kg
Procedure: Male rats of SD strain weighing ca. 300 g, which had been fasted for 24 hours, were dosed with an amount of ^14 C-DN-1417 corresponding to 2 mg/kg of DN-1417 by the rectal, nasal, oral cavity and oral routes. The dosage form for nasal, oral cavity or oral administration was either an aqueous solution or an oil solution, and for nasal administration, 0.02 ml of the solution was given with a micropipette; for oral cavity application, a wad of cotton soaked with 0.02 ml of the solution was sublingually administered; and for oral administration, 1 ml of the solution was given by gavage. For rectal administration, 0.1 ml of an aqueous solution was given using a pipette. In the case of a polyethylene glycol suppository and Witepsol W-35 (Dynamit Nobel Chemicals, West Germany) suppository, 50 mg of either suppository was deposited 1.5 cm from the anus.
After administration, 0.2 ml of blood was taken from the cordal vein at timed intervals and the plasma radioactivity was measured with a scintillation counter. Separation of the unmetabolized compound from metabolites was performed by thin-layer electrophoresis. For the evaluation of absorption rates, the area under a curve of the plasma concentration of DN-1417 over a period of 6 hours after administration [AUC (0-6 hr.)] was compared with the corresponding value obtained by subcutaneous administration to calculate the bioavailability of the drug.

Structure (SMILES) | absorption from the rectal and nasal mucosa [1] | AUC (0-2 hr.) ([1]; pH 2.1) | AUC (0-2 hr.) ([1]; pH 3.2) | effect on absorption ([2]; addition of a hydroxycarboxylic acid) | effect on absorption ([2]; addition of amino acids, lecithin, etc.) | bioavailability as compared with subcutaneous application ([2]; nasal) | bioavailability as compared with subcutaneous application ([2]; rectal)
NC(=O)[C@@H]1CCCN1C(=O)[C@H](Cc1cnc[nH]1)NC(=O)[C@@H]1CCC(=O)N1 [TRH, L-pyroglutamyl-L-histidyl-L-prolinamide] | enhanced | 1100 ng·h/mL | 700 ng·h/mL |  |  |  | 
NC(=O)[C@@H]1CCCN1C(=O)[C@H](Cc1c[nH]cn1)NC(=O)C1CCC(=O)O1 (stereo partly drawn) [DN-1417, γ-butyrolactone-γ-carbonyl-L-histidyl-L-prolinamide] |  |  |  | remarkable improvement in absorption | does not result in any significant improvement of absorption | 21% | 25%
